Source: patent EP0873990A1, “BENZOIC ACID COMPOUNDS AND MEDICINAL USE THEREOF” (YOSHITOMI PHARMACEUTICAL INDUSTRIES, LTD., priority 1995, dated 1997)
Where a name gives a salt, the structure may show the parent alone. Read-outs that look alike come from different tables or passages of the source.

Assays:
5-HT4 receptor = target: T1, 5-HT4 receptor (Cavia porcellus, UniProt O70528); assay: biochemical; type: binding, guinea pig
T1 construct: crude synapse membrane sample was prepared from guinea pig striatum; from tissue; host or cells: guinea pig striatum, crude synaptic membranes
Description: Specifically, crude synapse membrane sample was prepared from guinea pig striatum, suspended in 50 mM HEPES buffer (pH 7.4) and used for testing. The test compound having several different concentrations and [3H]GR113808 (final concentration 0.1 nM) were added to this suspension and allowed to react at 37°C. Thirty minutes later, the reaction mixture was filtered by suction with cell harvester. The filter was washed with 50 mM HEPES buffer, and the radioactivity on the filter was counted by liquid scintillation counter. The non-specific binding was determined in the presence of 1 µM GR113808. The concentration of the test compound necessary for 50% inhibition (IC50) was determined from a graph and converted to a Ki value.

5-HT3 receptor = target: T2, 5-HT3 receptor (Rattus norvegicus, UniProt P35563); assay: 5-HT3 receptor binding test ([3H]Granisetron, crude synapse membrane from cerebral cortex); details: for Ki: IC50 converted to Ki, read-out: Affinity for receptor (Ki value, nM) 5-HT3
T2 construct: crude synapse membrane sample was prepared from rat cerebral cortex; from tissue; host or cells: rat cerebral cortex, crude synaptic membranes
T2 sequence (P35563 24-483): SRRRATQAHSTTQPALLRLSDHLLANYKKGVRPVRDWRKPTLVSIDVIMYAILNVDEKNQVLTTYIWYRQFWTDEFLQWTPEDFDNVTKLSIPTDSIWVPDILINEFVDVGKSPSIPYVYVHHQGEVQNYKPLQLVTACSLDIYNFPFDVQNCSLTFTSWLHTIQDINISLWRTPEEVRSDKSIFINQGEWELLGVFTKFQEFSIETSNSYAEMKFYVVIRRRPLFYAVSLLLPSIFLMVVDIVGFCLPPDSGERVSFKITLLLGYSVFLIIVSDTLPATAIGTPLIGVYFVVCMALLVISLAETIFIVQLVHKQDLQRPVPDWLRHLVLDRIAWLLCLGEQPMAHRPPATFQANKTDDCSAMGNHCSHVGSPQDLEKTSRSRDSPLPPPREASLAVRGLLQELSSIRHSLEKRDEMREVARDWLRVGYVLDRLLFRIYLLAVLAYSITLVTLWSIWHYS
Description: 148, pp. 297-299 (1988)], a specific 5-HT3 receptor binding test was run using, as a tracer ligand, endo-1-methyl-N-(9-methyl-9-azabicyclo[3.3.1]non-3-yl)-1H-indazole-3-carboxamide substituted by tritium (hereinafter to be referred to as [3H]Granisetron). Specifically, crude synapse membrane sample was prepared from rat cerebral cortex, suspended in 50 mM HEPES buffer (pH 7.4) and used for testing. The test compound having several different concentrations and [3H]Granisetron (final concentration 1.0 nM) were added to this suspension and allowed to react at 25°C. Thirty minutes later, the reaction mixture was filtered by suction with cell harvester. The filter was washed with 50 mM Tris buffer (pH 7.4), and the radioactivity on the filter was counted using liquid scintillation counter or β-plate. The non-specific binding was determined in the presence of 1 µM Tropisetron. The concentration of the test compound necessary for 50% inhibition (IC50) was determined from a graph and converted to a Ki value.

male Wistar rats = assay: Promotion of gastric emptying in rats; type: in vivo, rat; details: for number of pellets (remaining in stomach): stomach removed one hour later; for promotion (%) of gastric emptying: from comparison with remaining pellets in vehicle group
Description: Barium pellets (ca. 1 mm diameter) coated with polystyrene was intragastrically administered to male Wistar rats. One hour later, stomach was removed, and the remaining pellets were counted. The compound of Example 57 was orally administered one hour before administration of the pellets. The promotion ratio was calculated from the comparison with the number of remaining pellets in the group administered with vehicle.

Male ddY mice = assay: Stimulation of defecation in mouse; type: in vivo; details: for promotion (%) of number / promotion (%) of wet weight: 2 hours, versus vehicle; for number (of feces) / wet weight (mg) (of feces): feces excreted for 2 hours after oral administration, n=20
Description: Male ddY mice were placed in partition box, and the number and wet weight of feces excreted for 2 hours from immediately after oral administration of the compound of Example 57 were measured.

Male Hartley guinea pigs = assay: Promotion of colonic transit in guinea pig; type: in vivo; details: for ratio of colonic transit (%): colon removed one hour later; for promotion (%) of colonic transit: versus vehicle
Description: Male Hartley guinea pigs were subjected to laparotomy under ether anesthesia, and a polyethylene tube was inserted into the beginning of colon. The other end was passed under the skin to be exposed from the neck and fixed there. At day 5 postoperation, Evans blue solution was injected into the colon through the polyethylene tube. One hour later, the colon was removed, and the range of the Evans blue solution was measured, which was calculated relative to the entire length of the colon and expressed as transit ratio. The compound of Example 57 was orally administered one hour before injection of the Evans blue solution.

[1] = [3H]GR113808 0.1 nM, guinea pig striatum membranes, 37°C, 30 min, IC50 converted to Ki, read-out: Affinity for receptor (Ki value, nM) 5-HT4
[2] = values marked * are IC50, [3H]Granisetron 1.0 nM, rat cerebral cortex membranes, 25°C, 30 min, read-out: Affinity for receptor 5-HT3 (∗ shows IC50)
[3] = [3H]Granisetron 1.0 nM, rat cerebral cortex membranes, 25°C, 30 min

T1 sequence (O70528 whole entry): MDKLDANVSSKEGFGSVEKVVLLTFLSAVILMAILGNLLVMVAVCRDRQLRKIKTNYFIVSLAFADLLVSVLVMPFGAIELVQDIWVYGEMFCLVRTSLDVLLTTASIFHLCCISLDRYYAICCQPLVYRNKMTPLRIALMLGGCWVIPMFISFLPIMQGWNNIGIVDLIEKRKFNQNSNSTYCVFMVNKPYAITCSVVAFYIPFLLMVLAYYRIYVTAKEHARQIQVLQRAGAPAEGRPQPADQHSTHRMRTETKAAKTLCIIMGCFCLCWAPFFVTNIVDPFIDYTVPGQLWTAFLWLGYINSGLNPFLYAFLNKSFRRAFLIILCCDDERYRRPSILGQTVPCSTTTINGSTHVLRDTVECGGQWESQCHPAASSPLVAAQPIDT

## COc1cc(N)c(Cl)cc1C(=O)NCC1CCN(CCCCCNCc2ccc3ccccc3c2)CC1 [Example 14, 4-amino-5-chloro-2-methoxy-N-((1-(5-(2-naphthylmethylamino)pentyl)piperidin-4-yl)methyl)benzamide]
5-HT4 receptor; [1]
  Ki: 0.97 nM
5-HT3 receptor; [2]
  IC50: > 1000 nM

## COc1cc(N)c(Cl)cc1C(=O)NCC1CCN(CCCCCSCc2ccccc2)CC1 [Example 54, 4-amino-N-((1-(5-benzylthiopentyl)piperidin-4-yl)methyl)-5-chloro-2-methoxybenzamide]
5-HT4 receptor; [1]
  Ki: 1.6 nM
5-HT3 receptor; [3]
  Ki: 340 nM

## CCN(CCCCN1CCC(CNC(=O)c2cc(Cl)c(N)cc2OC)CC1)Cc1ccc(Cl)c(Cl)c1 [Example 42, 4-amino-5-chloro-N-((1-(4-(N-(3,4-dichlorobenzyl)-N-ethylamino)butyl)piperidin-4-yl)methyl)-2-methoxybenzamide]
5-HT4 receptor; [1]
  Ki: 0.62 nM
5-HT3 receptor; [2]
  IC50: > 1000 nM

## CCn1cc(C(=O)CCCCCN2CCC(CNC(=O)c3cc(Cl)c(N)cc3OC)CC2)c2ccccc21 [Example 93, 4-amino-5-chloro-2-methoxy-N-((1-(6-(1-ethyl-1H-indol-3-yl)-6-oxohexyl)piperidin-4-yl)methyl)benzamide]
5-HT4 receptor
  Ki: 0.47 nM
5-HT3 receptor
  IC50: > 1000 nM

## COc1cc(N)c(Cl)cc1C(=O)NCC1CCN(CCCCCC(=O)c2cccc3ccccc23)CC1 [Example 81, 4-amino-5-chloro-N-((1-(6-(1-naphthyl)-6-oxohexyl)piperidin-4-yl)methyl)-2-methoxybenzamide hydrochloride]
5-HT4 receptor; [1]
  Ki: 0.5 nM
5-HT3 receptor; [2]
  IC50: > 1000 nM

## COc1cc(N)c(Cl)cc1C(=O)NCC1CCN(CCCCCOCc2ccccc2)CC1 [Example 53, 4-amino-N-((1-(5-benzyloxypentyl)piperidin-4-yl)methyl)-5-chloro-2-methoxybenzamide]
5-HT4 receptor; [1]
  Ki: 3.5 nM
5-HT3 receptor; [3]
  Ki: 370 nM

## COc1cc(N)c(Cl)cc1C(=O)NCC1CCN(CCCCCNCC2CCCCC2)CC1 [Example 11, 4-amino-5-chloro-N-((1-(5-(cyclohexylmethylamino)pentyl)piperidin-4-yl)methyl)-2-methoxybenzamide]
5-HT4 receptor; [1]
  Ki: 0.51 nM
5-HT3 receptor; [2]
  IC50: > 1000 nM

## COc1ccc(C(=O)CCCCCN2CCC(CNC(=O)c3cc(Cl)c(N)cc3OC)CC2)cc1Cl [Example 73, 4-amino-5-chloro-N-((1-(6-(3-chloro-4-methoxyphenyl)-6-oxohexyl)piperidin-4-yl)methyl)-2-methoxybenzamide]
5-HT4 receptor; [1]
  Ki: 1.8 nM
5-HT3 receptor; [2]
  IC50: > 1000 nM

## COc1cc(N)c(Cl)cc1C(=O)NCC1CCN(CCCCCC(=O)c2ccccc2)CC1 [Example 57, 4-amino-5-chloro-2-methoxy-N-((1-(6-oxo-6-phenylhexyl)piperidin-4-yl)methyl)benzamide]
5-HT4 receptor; [1]
  Ki: 2.4 nM
Male Wistar rats; 0.3 mg/kg p.o. one hour before barium pellets
  number of pellets (remaining in stomach): 28.2 ±1.3
Male Wistar rats; 0.3 mg/kg p.o.
  promotion (%) of gastric emptying: 0%
Male Wistar rats; 1 mg/kg p.o. one hour before barium pellets
  number of pellets (remaining in stomach): 24.3 ±2.5
Male Wistar rats; 1 mg/kg p.o.
  promotion (%) of gastric emptying: 14%
Male Wistar rats; 3 mg/kg p.o. one hour before barium pellets, P<0.05
  number of pellets (remaining in stomach): 19.0 ±2.6
Male Wistar rats; 3 mg/kg p.o.
  promotion (%) of gastric emptying: 32%
Male Wistar rats; 10 mg/kg p.o. one hour before barium pellets, P<0.01
  number of pellets (remaining in stomach): 13.3 ±3.0
Male Wistar rats; 10 mg/kg p.o.
  promotion (%) of gastric emptying: 53%
Male ddY mice; 0.1 mg/kg p.o.
  promotion (%) of number: 70%
  promotion (%) of wet weight: 69%
  number (of feces): 3.4±0.3
  wet weight (mg) (of feces): 59.2 ± 6.5 mg
Male ddY mice; 0.3 mg/kg p.o.
  promotion (%) of number: 135%
  promotion (%) of wet weight: 136%
Male ddY mice; 0.3 mg/kg p.o., P<0.01
  number (of feces): 4.7±0.5
  wet weight (mg) (of feces): 82.7 ± 11.5 mg
Male ddY mice; 1 mg/kg p.o.
  promotion (%) of number: 130%
  promotion (%) of wet weight: 120%
Male ddY mice; 1 mg/kg p.o., P<0.01
  number (of feces): 4.6±0.6
  wet weight (mg) (of feces): 77.2 ± 11.9 mg
Male ddY mice; 3 mg/kg p.o.
  promotion (%) of number: 135%
  promotion (%) of wet weight: 132%
Male ddY mice; 3 mg/kg p.o., P<0.01
  number (of feces): 4.7±0.5
  wet weight (mg) (of feces): 81.6 ± 10.4 mg
Male Hartley guinea pigs; 0.1 mg/kg p.o. one hour before Evans blue injection, n=16
  ratio of colonic transit (%): 54.5±8.0%
Male Hartley guinea pigs; 0.1 mg/kg p.o.
  promotion (%) of colonic transit: 23%
Male Hartley guinea pigs; 0.3 mg/kg p.o. one hour before Evans blue injection, n=16
  ratio of colonic transit (%): 54.7±5.9%
Male Hartley guinea pigs; 0.3 mg/kg p.o.
  promotion (%) of colonic transit: 24%
Male Hartley guinea pigs; 1 mg/kg p.o. one hour before Evans blue injection, n=15, P<0.05
  ratio of colonic transit (%): 71.8±6.9 %
Male Hartley guinea pigs; 1 mg/kg p.o.
  promotion (%) of colonic transit: 62%
Male Hartley guinea pigs; 3 mg/kg p.o. one hour before Evans blue injection, n=14, P<0.05
  ratio of colonic transit (%): 73.2±6.3 %
Male Hartley guinea pigs; 3 mg/kg p.o.
  promotion (%) of colonic transit: 66%
5-HT3 receptor; [2]
  IC50: > 1000 nM

## CCN(CCCCCN1CCC(CNC(=O)c2cc(Cl)c(N)cc2OC)CC1)Cc1ccc(F)cc1 [Example 25, 4-amino-5-chloro-N-((1-(5-(N-ethyl-N-(4-fluorobenzyl)amino)pentyl)piperidin-4-yl)methyl)-2-methoxybenzamide]
5-HT4 receptor; [1]
  Ki: 0.94 nM
5-HT3 receptor; [2]
  IC50: > 1000 nM

## COc1cc(N)c(Cl)cc1C(=O)NCC1CCN(CCCCCC(=O)c2cn(C)c3ccccc23)CC1 [Example 77, 4-amino-5-chloro-2-methoxy-N-((1-(6-(1-methyl-1H-indol-3-yl)-6-oxohexyl)piperidin-4-yl)methyl)benzamide]
5-HT4 receptor; [1]
  Ki: 0.34 nM
5-HT3 receptor; [2]
  IC50: > 1000 nM

## COc1cc(N)c(Cl)cc1C(=O)NCC1CCN(CCCCCCC(=O)c2ccccc2)CC1 [Example 58, 4-amino-5-chloro-2-methoxy-N-((1-(7-oxo-7-phenylheptyl)piperidin-4-yl)methyl)benzamide]
5-HT4 receptor; [1]
  Ki: 1.5 nM
5-HT3 receptor; [2]
  IC50: > 1000 nM

## COc1cc(N)c(Cl)cc1C(=O)NCC1CCN(CCCCCC(=O)c2ccc(O)cc2)CC1 [Example 75, 4-amino-5-chloro-N-((1-(6-(4-hydroxyphenyl)-6-oxohexyl)piperidin-4-yl)methyl)-2-methoxybenzamide]
5-HT4 receptor; [1]
  Ki: 1.5 nM
5-HT3 receptor; [2]
  IC50: > 1000 nM

## CCN(CCCCCCN1CCC(CNC(=O)c2cc(Cl)c(N)cc2OC)CC1)Cc1ccccc1 [Example 44, 4-amino-5-chloro-N-((1-(6-(N-ethyl-N-benzylamino)hexyl)piperidin-4-yl)methyl)-2-methoxy benzamide]
5-HT4 receptor; [1]
  Ki: 0.67 nM
5-HT3 receptor; [2]
  IC50: > 1000 nM

## CCCN(CCCCCN1CCC(CNC(=O)c2cc(Cl)c(N)cc2OC)CC1)Cc1ccccc1 [Example 33, 4-amino-5-chloro-2-methoxy-N-((1-(5-(N-n-propyl-N-benzylamino)pentyl)piperidin-4-yl)methyl)benzamide]
5-HT4 receptor; [1]
  Ki: 0.84 nM
5-HT3 receptor; [2]
  IC50: > 1000 nM

## COc1cc(N)c(Cl)cc1C(=O)NCC1CCN(CCCCCS(=O)(=O)c2ccccc2)CC1 [Example 84, 4-amino-5-chloro-2-methoxy-N-((1-(5-phenylsulfonylpentyl)piperidin-4-yl)methyl)benzamide hydrochloride]
5-HT4 receptor; [1]
  Ki: 1.4 nM
5-HT3 receptor; [2]
  IC50: > 1000 nM

## COc1ccc(C(=O)CCCCCN2CCC(CNC(=O)c3cc(Cl)c(N)cc3OC)CC2)cc1F [Example 74, 4-amino-5-chloro-N-((1-(6-(3-fluoro-4-methoxyphenyl)-6-oxohexyl)piperidin-4-yl)methyl)-2-methoxybenzamide]
5-HT4 receptor; [1]
  Ki: 5.1 nM
5-HT3 receptor; [2]
  IC50: > 1000 nM

## CCN(CCCCCCN1CCC(CNC(=O)c2cc(Cl)c(N)cc2OC)CC1)Cc1ccc([N+](=O)[O-])cc1 [Example 47, 4-amino-5-chloro-N-((1-(6-(N-ethyl-N-(4-nitrobenzyl)amino)hexyl)piperidin-4-yl)methyl)-2-methoxybenzamide]
5-HT4 receptor; [1]
  Ki: 2.7 nM
5-HT3 receptor; [2]
  IC50: > 1000 nM
